Read-outs that look alike come from different tables or passages of the source. Residues, ends and D or L forms follow the SMILES beside them.
What was measured:
Assay type in all cases: cell-based
[1] = test system: Escherichia coli ATCC 25922
Text: (§1) Ten organisms obtained from the American Type Culture Collection (ATCC; Rockville, MD) were used for antimicrobial assays. Four Gram-negative bacteria included Escherichia coli ATCC 25922, Pseudomonas aeruginosa ATCC 27853, Klebsiella oxytoca ATCC 49131, and Proteus vulgaris ATCC 49132. The three Gram-positive bacteria were Staphylococcus aureus 29213, Micrococcus luteus ATCC 49,732, and Enterococcus faecalis ATCC 29212. The three fungi were Candida albicans ATCC 37092, Candida kefyr ATCC 37095, and Candida tropicalis ATCC 37097. The clinical isolates were obtained from Singapore General Hospital (SGH). They are Enterococcus faecium, Staphylococcus aureus, Klebsiella pneumoniae, Acinetobacter baumannii, Pseudomonas aeruginosa, and Enterobacter species. The strains were incubated in trypticase soy broth (TSB), which was prepared in double distilled water and autoclaved for sterilization. TSB was purchased from Becton-Dickinson (Cockeysville, MD, USA).
(§2) Antimicrobial Assays. A sensitive and reproducible two-stage radial diffusion antimicrobial assay of Lehrer et al. was employed. A 1–4 × 10^6 colony-forming unit/mL of the test organism was mixed with 10 mL of molten underlay gel solution and poured into Petri dishes to form a uniform layer. The gel solution consisted of 10 mM sodium phosphate buffer, 0.03% TSB, and 0.02% Tween-20, with the addition of 100 mM NaCl in the case of high-salt conditions. Upon gel solidification, gel wells were made by a 3-mm diameter template in an evenly spaced array. A 5 µL aliquot of a serial half-log dilution of test peptides at seven concentrations was added to each well after removal of gel plugs. The dishes were incubated at 37 °C for 3 h to allow peptide diffusion into the underlay gels. Gels were overlaid with 10 mL of 1% agarose in 6% TSB (wt/vol). After additional incubation at 37 °C for 16–24 h, the diameter of the clear zone surrounding the wells (colony-free) was measured under a microscope. Antimicrobial activities were expressed in units (0.1 mm = 1 unit), and the MICs (in µM) were determined from the x-intercepts of the dose-response curves. Experiments were performed in triplicates.

[2] = test system: Candida kefyr ATCC 37095
Text: as §1, §2

[3] = test system: Candida tropicalis ATCC 37097
Text: as §1, §2

[4] = test system: Proteus vulgaris ATCC 49132
Text: as §1, §2

[5] = test system: Klebsiella oxytoca ATCC 49131
Text: as §1, §2

[6] = test system: Pseudomonas aeruginosa ATCC 27853
Text: as §1, §2

[7] = test system: Staphylococcus aureus 29213
Text: as §1, §2

[8] = test system: Micrococcus luteus ATCC 49,732
Text: as §1, §2

[9] = test system: Enterococcus faecalis ATCC 29212
Text: as §1, §2

[10] = test system: Candida albicans ATCC 37092
Text: as §1, §2

Compound	MIC, E. coli, H-Salt ([1]; ATCC 25922, 3 h) [µM]	MIC, E. coli, L-Salt ([1]; ATCC 25922, 3 h) [µM]	MIC, C. kefyr, H-Salt ([2]; ATCC 37095, 3 h) [µM]	MIC, C. kefyr, L-Salt ([2]; ATCC 37095, 3 h) [µM]	MIC, C. tropicalis, H-Salt ([3]; ATCC 37097, 3 h) [µM]	MIC, C. tropicalis, L-Salt ([3]; ATCC 37097, 3 h) [µM]	MIC, P. vulgaris, H-Salt ([4]; ATCC 49132, 3 h) [µM]	MIC, P. vulgaris, L-Salt ([4]; ATCC 49132, 3 h) [µM]	MIC, K. oxytoca, H-Salt ([5]; ATCC 49131, 3 h) [µM]	MIC, K. oxytoca, L-Salt ([5]; ATCC 49131, 3 h) [µM]	MIC, P. aeruginosa, H-Salt ([6]; ATCC 27853, 3 h) [µM]	MIC, P. aeruginosa, L-Salt ([6]; ATCC 27853, 3 h) [µM]	MIC, S. aureus, H-Salt ([7]; 29213, 3 h) [µM]	MIC, S. aureus, L-Salt ([7]; 29213, 3 h) [µM]	MIC, M. luteus, H-Salt ([8]; ATCC 49, 3 h) [µM]	MIC, M. luteus, L-Salt ([8]; ATCC 49, 3 h) [µM]	MIC, E. faecalis, H-Salt ([9]; ATCC 29212, 3 h) [µM]	MIC, E. faecalis, L-Salt ([9]; ATCC 29212, 3 h) [µM]	MIC, C. albicans, H-Salt ([10]; ATCC 37092, 3 h) [µM]	MIC, C. albicans, L-Salt ([10]; ATCC 37092, 3 h) [µM]	also measured
CC(=O)N[C@@H](CCCNC(=O)[C@H](CCCNC(=N)N)NC(=O)[C@H](Cc1ccc(O)cc1)NC(=O)[C@H](CC(C)C)NC(=O)[C@@H](N)CCCNC(=N)N)C(=O)N[C@@H](CCCNC(=O)[C@H](CCCNC(=N)N)NC(=O)[C@H](Cc1ccc(O)cc1)NC(=O)[C@H](CC(C)C)NC(=O)[C@@H](N)CCCNC(=N)N)C(=O)N[C@@H](CCCNC(=O)[C@H](CCCNC(=N)N)NC(=O)[C@H](Cc1ccc(O)cc1)NC(=O)[C@H](CC(C)C)NC(=O)[C@@H](N)CCCNC(=N)N)C(N)=O [O3R]	8.7	0.9	1.4	0.8	1.9	2.1	24.6	6.9	1.7	1.7	8.9	1.9	93.4	9.6	16.4	5.4	> 500	49.8	18.2	6.4	
CC(=O)N[C@@H](CCCNC(=O)[C@H](CCCNC(=N)N)NC(=O)[C@H](Cc1ccc(O)cc1)NC(=O)[C@H](CC(C)C)NC(=O)[C@@H](N)CCCNC(=N)N)C(=O)N[C@@H](CCCNC(=O)[C@H](CCCNC(=N)N)NC(=O)[C@H](Cc1ccc(O)cc1)NC(=O)[C@H](CC(C)C)NC(=O)[C@@H](N)CCCNC(=N)N)C(=O)N[C@@H](CCCNC(=O)[C@H](CCCNC(=N)N)NC(=O)[C@H](Cc1ccc(O)cc1)NC(=O)[C@H](CC(C)C)NC(=O)[C@@H](N)CCCNC(=N)N)C(=O)N[C@@H](CCCNC(=O)[C@H](CCCNC(=N)N)NC(=O)[C@H](Cc1ccc(O)cc1)NC(=O)[C@H](CC(C)C)NC(=O)[C@@H](N)CCCNC(=N)N)C(N)=O [O4R]																					MIC, E. coli, H-Salt ([1]; ATCC 25922, two-stage radial diffusion assay, high-salt (underlay gel 10 mM sodium phosphate, 0.03% TSB, 0.02% Tween-20, with 100 mM NaCl), 37 °C, x-intercept of dose-response curve, triplicates): 4.1 µM; MIC, E. coli, L-Salt ([1]; ATCC 25922, two-stage radial diffusion assay, low-salt (underlay gel 10 mM sodium phosphate, 0.03% TSB, 0.02% Tween-20, without NaCl), 37 °C, x-intercept of dose-response curve, triplicates): 0.7 µM; MIC, C. kefyr, H-Salt ([2]; ATCC 37095, radial diffusion assay, high-salt (100 mM NaCl), triplicates): 0.8 µM; MIC, C. kefyr, L-Salt ([2]; ATCC 37095, radial diffusion assay, low-salt (without NaCl), triplicates): 0.7 µM; MIC, C. tropicalis, H-Salt ([3]; ATCC 37097, radial diffusion assay, high-salt (100 mM NaCl), triplicates): 1.5 µM; MIC, C. tropicalis, L-Salt ([3]; ATCC 37097, radial diffusion assay, low-salt (without NaCl), triplicates): 1.4 µM; MIC, P. vulgaris, H-Salt ([4]; ATCC 49132, radial diffusion assay, high-salt (100 mM NaCl), triplicates): 2.2 µM; MIC, P. vulgaris, L-Salt ([4]; ATCC 49132, radial diffusion assay, low-salt (without NaCl), triplicates): 5.6 µM; MIC, K. oxytoca, H-Salt ([5]; ATCC 49131, radial diffusion assay, high-salt (100 mM NaCl), triplicates): 2.4 µM; MIC, K. oxytoca, L-Salt ([5]; ATCC 49131, radial diffusion assay, low-salt (without NaCl), triplicates): 1.8 µM; MIC, P. aeruginosa, H-Salt ([6]; ATCC 27853, radial diffusion assay, high-salt (100 mM NaCl), triplicates): 4.8 µM; MIC, P. aeruginosa, L-Salt ([6]; ATCC 27853, radial diffusion assay, low-salt (without NaCl), triplicates): 2.1 µM; MIC, S. aureus, H-Salt ([7]; strain 29213, radial diffusion assay, high-salt (100 mM NaCl), triplicates): 2.0 µM; MIC, S. aureus, L-Salt ([7]; strain 29213, radial diffusion assay, low-salt (without NaCl), triplicates): 7.3 µM; MIC, M. luteus, H-Salt ([8]; ATCC 49,732, radial diffusion assay, high-salt (100 mM NaCl), triplicates): 6.9 µM; MIC, M. luteus, L-Salt ([8]; ATCC 49,732, radial diffusion assay, low-salt (without NaCl), triplicates): 1.8 µM; MIC, E. faecalis, H-Salt ([9]; ATCC 29212, radial diffusion assay, high-salt (100 mM NaCl), triplicates): > 500 µM; MIC, E. faecalis, L-Salt ([9]; ATCC 29212, radial diffusion assay, low-salt (without NaCl), triplicates): 6.6 µM; MIC, C. albicans, H-Salt ([10]; ATCC 37092, radial diffusion assay, high-salt (100 mM NaCl), triplicates): 1.6 µM; MIC, C. albicans, L-Salt ([10]; ATCC 37092, radial diffusion assay, low-salt (without NaCl), triplicates): 1.4 µM
CC(C)C[C@H](NC(=O)[C@@H](N)CCCNC(=N)N)C(=O)N[C@@H](Cc1ccc(O)cc1)C(=O)N[C@@H](CCCNC(=N)N)C(=O)NCCC[C@H](NC(=O)[C@H](CCCNC(=O)[C@H](CCCNC(=N)N)NC(=O)[C@H](Cc1ccc(O)cc1)NC(=O)[C@H](CC(C)C)NC(=O)[C@@H](N)CCCNC(=N)N)NC(=O)[C@H](CCCNC(=O)[C@H](CCCNC(=N)N)NC(=O)[C@H](Cc1ccc(O)cc1)NC(=O)[C@H](CC(C)C)NC(=O)[C@@H](N)CCCNC(=N)N)NC(=O)[C@H](CCCNC(=O)[C@H](CCCNC(=N)N)NC(=O)[C@H](Cc1ccc(O)cc1)NC(=O)[C@H](CC(C)C)NC(=O)[C@@H](N)CCCNC(=N)N)NC(=O)[C@H](CCCNC(=N)N)NC(=O)[C@H](Cc1ccc(O)cc1)NC(=O)[C@H](CC(C)C)NC(=O)[C@@H](N)CCCNC(=N)N)C(N)=O [O5R] (HELM PEPTIDE1{R.L.Y.R.[Orn].[Orn].[Orn].[Orn].[am]}|PEPTIDE2{R.L.Y.R}|PEPTIDE3{R.L.Y.R}|PEPTIDE4{R.L.Y.R}|PEPTIDE5{R.L.Y.R}$PEPTIDE1,PEPTIDE2,8:R3-4:R2|PEPTIDE1,PEPTIDE3,7:R3-4:R2|PEPTIDE1,PEPTIDE4,6:R3-4:R2|PEPTIDE1,PEPTIDE5,5:R3-4:R2$$$V2.0; N-terminus assumed)	2.3	0.9	0.7	0.7	0.7	1.1	19.2	8.1	2.4	1.8	3.1	2.0	6.5	5.4	1.7	1.3	> 500	10.2	1.5	0.9	

— article PMC10489980, “Design of Potent and Salt-Insensitive Antimicrobial Branched Peptides” (Polymers, 2023)
